# Results from patent US20070281925A1, “USE OF SERTINDOLE FOR THE PREVENTIVE TREATMENT OF SUICIDAL BEHAVIOUR” (H. Lundbeck A/S, priority 2006, published 2007).
# Experiments:
# [1] = test system: patient population of clinical trials of atypical antipsychotics; conditions: between sertindole, olanzapine and risperidone; cited from earlier work
# [2] = test system: patients with schizophrenia; test: Sertindole Cohort Prospective (SCoP) study: fatal or non-fatal suicide attempts, sertindole vs risperidone; assay type: in vivo, human; conditions: for Committed or attempted suicide (rate/100 PYE): WRT period plus 30 days; for Hazard Ratio SERT as compared to RISP, committing or attempting suicide: Cox proportional hazards model adjusting for age, gender, history of suicide attempt, duration of schizophrenia; for Hazard ratio SERT/RISP, committed or attempted suicide: log-rank test, WRT plus 30 days
# From the text: (§1) The Sertindole Cohort Prospective (SCoP) study was designed as a multi-national, multi-centre, prospective, randomized, open-label, two parallel-group, active-controlled study in human subjects with schizophrenia. The objective of the study is to compare the safety of sertindole with the safety of another standard antipsychotic drug (in this case risperidone) under normal conditions of use. In addition, the study collects information on fatal or non-fatal suicide attempts. The study was initiated in 2002 and is still ongoing.
# (§2) To ensure that the study population is representative of patients with schizophrenia, only a limited number of selection criteria are imposed. In particular, patients are required to fulfil the criteria specified in the SmPCs (Core Summary of Product Characteristics) for both sertindole and risperidone; they are not to have received either sertindole or risperidone as their treatment immediately before entering the study, and they require treatment with but a single anti-schizophrenia drug product.
# as §1, with “is” for “was designed as”, “multinational,” for “multi-national,”, “patients” for “human subjects”
# The data in the study are reported for different periods. The Only-Randomized-Treatment-Period (ORT) covers the time the patient is receiving antipsychotic monotherapy with the randomized trial medication. However, patients can also be treated in combination with another antipsychotic if this is clinically necessary. When the patient receives an additional antipsychotic, the patient is censored and the data are reported for the Whole-Randomized-Treatment period (WRT). The primary period for reporting is the so-called Whole-Randomized-Treatment+30 period (WRT+30), which covers the time during which the patient receives randomized treatment plus 30 days after treatment discontinuation. Finally, the period during which the patient is followed even after the treatment has been stopped is called the Whole-Follow-up-Period (WFP).
# as §2, with “fulfill” for “fulfil”, “SmPCs” for “SmPCs (Core Summary of Product Characteristics)”, “antipsychotic drug.” for “anti-schizophrenia drug product.”
# Throughout the treatment period patients are dosed according to the treatment recommendations in their respective SmPCs. […]
# Regarding attempted suicide, the analysis comprised only those events for which the investigators confirmed that the patients actually tried to commit suicide. Events such as intentional overdose and intentional self-injury were clarified by the investigators and were not included in the analysis unless the investigators confirmed that they were real suicide attempts. The included events were coded as ‘suicide attempt’ in the database.
# The above definition of attempted suicide has the advantage of making it possible combine this event with completed suicide and to analyze the time until either event occurs. This can be done since all patients are randomised to start new treatment with either sertindole or risperidone.
# All events occurring in the Whole Randomised Treatment (WRT) period plus 30 days were considered for analysis, up until the data cut-off. The WRT period is the period from start to stop of randomised treatment. The null hypothesis of equality of hazards between treatment groups was tested using the log-rank test. […]
# α2-adrenergic receptors = conditions: cited from earlier work
# [3] = test system: A9 dopamine neurons (the nigrostriatal pathway); conditions: cited from earlier work
# [4] = test system: patients with schizophrenia; test: Twelve-month open-label study of sertindole: time to sustained response; assay type: in vivo, human; conditions: 4-24 mg once daily for up to one year; 358 patients
# From the text: These findings are further corroborated by an exploratory analysis of clinical data obtained from a twelve-month open-label study ([…] et al., “Identification of Potential Predictors of Sertindole Response in Patients with Schizophrenia”, to be published). In line with the emerging consensus criteria for response to antipsychotic treatment in schizophrenia ([…] et al., Am J Psychiatry 162:441-449, March 2005), the objective of this exploratory analysis is to identify potential predictors of response to sertindole in patients with schizophrenia. The study assessed the safety and efficacy of sertindole doses (4-24 mg) administered once daily for up to one year in US patients with schizophrenia.
# muscarinic receptors = conditions: cited from earlier work
# histaminergic receptors = conditions: cited from earlier work
# [5] = test system: A10 neurons (the mesolimbic and mesocortical pathways); conditions: cited from earlier work
# [6] = compared with haloperidol, fluphenazine and chlorpromazine; cited from earlier work
# α1-adrenergic receptors = conditions: cited from earlier work
# [7] = test system: serotonin 5-HT2 receptors; conditions: cited from earlier work
# dopamine D2 receptors = dopamine D2 receptors (Homo sapiens, UniProt P14416); conditions: cited from earlier work
# dopamine D2 receptors, sequence (P14416 whole entry): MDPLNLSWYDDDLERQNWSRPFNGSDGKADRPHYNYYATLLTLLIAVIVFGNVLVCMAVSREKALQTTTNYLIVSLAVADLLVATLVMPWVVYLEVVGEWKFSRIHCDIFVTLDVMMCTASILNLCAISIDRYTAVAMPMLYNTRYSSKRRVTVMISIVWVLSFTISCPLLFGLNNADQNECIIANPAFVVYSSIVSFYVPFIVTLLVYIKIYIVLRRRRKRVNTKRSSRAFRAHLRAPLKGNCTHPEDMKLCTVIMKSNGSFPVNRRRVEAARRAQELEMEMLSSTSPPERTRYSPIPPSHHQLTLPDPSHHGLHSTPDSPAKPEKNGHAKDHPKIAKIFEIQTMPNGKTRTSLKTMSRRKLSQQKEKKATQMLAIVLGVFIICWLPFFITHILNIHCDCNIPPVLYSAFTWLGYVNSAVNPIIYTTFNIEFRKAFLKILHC
smiles,measurement,setting,value
Cc1nc2n(c(=O)c1CCN1CCC(c3noc4cc(F)ccc34)CC1)CCCC2 [risperidone],Short-term (450 days) hazard functions (mortality),[1],no obvious difference
same,Event rate in risperidone group relative to sertindole group (times higher),"[2]; Cox proportional hazards model, data cut-off 11.1 2007",approximately 1.7 times
same,Committed or attempted suicide (rate/100 PYE),"[2]; as of Nov. 1, 2006",1.15 rate/100 PYE
same,Committed or attempted suicide (rate/100 PYE),"[2]; as of Nov. 1, 2007",0.92 rate/100 PYE
same,Event rate in risperidone group relative to sertindole group (times higher),"[2]; data cut-off 11.1 2007, unadjusted",~1.5 times
same,Event rate in risperidone group relative to sertindole group (times higher),[2]; data up until 11 Jan. 2006,~1.5 times
O=C1NCCN1CCN1CCC(c2cn(-c3ccc(F)cc3)c3ccc(Cl)cc23)CC1 [sertindole],Binding to α2-adrenergic receptors,α2-adrenergic receptors,limited binding
same,Depolarization inactivation in A9 dopamine neurons,[3],does not induce depolarization inactivation
same,"Patients achieving sustained response (CGI-S<=3 and CGI-I<=2, sustained at least 8 weeks)",[4],125 patients
same,Binding to muscarinic receptors,muscarinic receptors,limited binding
same,Binding to histaminergic receptors,histaminergic receptors,limited binding
same,Activity in A10 neurons,[5],retains activity
same,Short-term (450 days) hazard functions (mortality),[1],no obvious difference
same,"Hazard Ratio SERT as compared to RISP, committing or attempting suicide","[2]; as of Nov. 1, 2007",approximately 0.6
same,"Hazard Ratio SERT as compared to RISP, committing or attempting suicide","[2]; as of Nov. 1, 2007, listed as SERT",0.614
same,Committed or attempted suicide (rate/100 PYE),"[2]; as of Nov. 1, 2006",0.85 rate/100 PYE
same,Committed or attempted suicide (rate/100 PYE),"[2]; as of Nov. 1, 2007",0.62 rate/100 PYE
same,"Hazard ratio SERT/RISP, committed or attempted suicide",[2]; data cut-off 11.1 2007,approximately 0.7
same,"Hazard ratio SERT/RISP, committed or attempted suicide","[2]; data cut-off 11.1 2007, listed as SERT",0.69
same,"Hazard ratio SERT/RISP, committed or attempted suicide",[2]; data up until 11 Jan. 2006,approximately 0.7
same,"Hazard ratio SERT/RISP, committed or attempted suicide","[2]; data up until 11 Jan. 2006, listed as SERT",0.72
same,Incidence of suicide attempts (both fatal and non-fatal) in comparison with risperidone,[2]; schizophrenic patients on maintenance dose sertindole therapy,reduced significantly
same,Adverse effects,[6],fewer adverse effects
same,Affinity for α1-adrenergic receptors,α1-adrenergic receptors,high affinity
same,Affinity for serotonin 5-HT2 receptors,[7],high affinity
same,Affinity for dopamine D2 receptors,dopamine D2 receptors,high affinity
Cc1cc2c(s1)Nc1ccccc1N=C2N1CCN(C)CC1 [olanzapine],Short-term (450 days) hazard functions (mortality),[1],no obvious difference
